The values below come from ChEMBL document CHEMBL1944503, “Synthesis and biological evaluation of conjugates of deoxypodophyllotoxin and 5-FU as inducer of caspase-3 and -7” (Eur J Med Chem, 2012).

Assay [1] has as its system A549. Nature of the assay: Induction of apoptosis in human A549 cells assessed as membrane blebbing at 0.5 uM after 24 hrs by Hoechst 33258 staining based fluorescence microscopy. The class given is functional, cell-based.
For assay [2], the system named is A549. Nature of the assay: Induction of apoptosis in human A549 cells assessed as nuclear condensation at 0.5 uM after 24 hrs by Hoechst 33258 staining based fluorescence microscopy. The class given is functional, cell-based.
The test system of assay [3] is A549. Nature of the assay: Induction of apoptosis in human A549 cells assessed as cell detachment at 0.5 uM after 24 hrs by Hoechst 33258 staining based fluorescence microscopy. The class given is functional.
Assay [4] relates to A549. Nature of the assay: Induction of apoptosis in human A549 cells assessed as cell shrinkage at 0.5 uM after 24 hrs by Hoechst 33258 staining based fluorescence microscopy. The class given is functional.
The test system of assay [5] is A549. Nature of the assay: Induction of apoptosis in human A549 cells assessed as nuclear fragmentation at 0.5 uM after 24 hrs by Hoechst 33258 staining based fluorescence microscopy. The class given is functional, cell-based.
The subject of assay [6] is A549. The experiment in a line: cells. To be noted: Homo sapiens, A549, 48 h.
Description: Cytotoxicity against human A549 cells after 48 hrs by MTT assay
The test system of assay [7] is A549. The experiment in a line: Cell cycle arrest in human A549 cells assessed as accumulation at G2/M phase at 0.5 uM by propidium iodide staining based flow cytometry analysis. The class given is functional. The following applies: TDE = time-dependent effect. On the technique in general: A flow cytometer gives signals particle by particle.
Assay [8] has as its system A549. The experiment in a line: Cell cycle arrest in human A549 cells assessed as accumulation at S phase at 0.5 uM after 24 hrs by propidium iodide staining based flow cytometry analysis (reference value: 30.3%). The class given is functional.
Assay [9] relates to A549. The experiment in a line: Cell cycle arrest in human A549 cells assessed as accumulation at G1 phase at 0.5 uM after 24 hrs by propidium iodide staining based flow cytometry analysis (reference value: 54.1%). The class given is functional.
In assay [10] the test system is A549. Nature of the assay: Induction of apoptosis in human A549 cells assessed as increase in caspase-7 cleavage at 0.5 uM by Western blot analysis. The class given is functional, cell-based. To be noted: TDE = time-dependent effect. (A western blot detects proteins with antibodies after separation by electrophoresis.)
The test system of assay [11] is A549. Nature of the assay: Cell cycle arrest in human A549 cells assessed as accumulation at S phase at 0.5 uM after 12 hrs by propidium iodide staining based flow cytometry analysis (reference value: 30.3%). The class given is functional.
In assay [12] the test system is A549. Nature of the assay: Cell cycle arrest in human A549 cells assessed as accumulation at G2/M phase at 0.5 uM after 24 hrs by propidium iodide staining based flow cytometry analysis (reference value: 15.6%). The class given is functional.
The test system of assay [13] is HL-60. The experiment in a line: Cytotoxicity against human HL60 cells after 48 hrs by CCK-8 assay. The class given is functional, cell-based. The following applies: HL-60, 48 h.
In assay [14] the test system is HeLa. The experiment in a line: Cytotoxicity against human HeLa cells after 48 hrs by CCK-8 assay. The class given is functional, cell-based. A general note: Tetrazolium dyes change colour on reduction, which living cells bring about.
In assay [15] the test system is A549. Nature of the assay: Induction of apoptosis in human A549 cells assessed as increase in caspase-3 cleavage at 0.5 uM by Western blot analysis. The class given is functional, cell-based. To be noted: TDE = time-dependent effect.
Assay [16] has as its system SiHa. The experiment in a line: Cytotoxicity against human SiHa cells after 48 hrs by MTT assay. The class given is functional, cell-based.
Assay [17] deals with A549. The experiment in a line: Cell cycle arrest in human A549 cells assessed as accumulation at G2/M phase at 0.5 uM after 12 hrs by propidium iodide staining based flow cytometry analysis (reference value: 15.6%). The class given is functional.
Assay [18] has as its system A549. Nature of the assay: Cell cycle arrest in human A549 cells assessed as accumulation at G1 phase at 0.5 uM after 12 hrs by propidium iodide staining based flow cytometry analysis (reference value: 54.1%). The class given is functional.
Assay [19] deals with A549. Nature of the assay: Cell cycle arrest in human A549 cells assessed as accumulation at G1 phase at 0.5 uM by propidium iodide staining based flow cytometry analysis. The class given is functional. To be noted: TDE = time-dependent effect.

Activity calls are given as the source filed them. No cut-off for these calls is given here.

Take `COc1cc([C@@H]2c3cc4c(cc3[C@H](O)[C@H]3COC(=O)[C@H]23)OCO4)cc(OC)c1OC`: the result in assay [1], in [2], in assay [3], in [4] and in assay [5] was Active.
A word on the IC50: it is the concentration that gives 50% inhibition. As to `COc1cc([C@@H]2c3cc4c(cc3C[C@H]3COC(=O)[C@@H]32)OCO4)cc(OC)c1OC(=O)[C@H](Cc1ccccc1)NC(=O)Cn1cc(F)c(=O)[nH]c1=O`, the IC50 in assay [6] is 560 nM; in assay [13], 23 nM; in assay [14], 830 nM; in assay [16], 760 nM. For the same compound, the Activity result is “tde” in [7]; 31.3% in assay [8]; 3.94% in assay [9]; “tde” in [10]; 42.6% in [11]; 64.8% in [12]. Besides, the Activity entry in assay [15] was “tde”; in [17] it was 52.6%; in assay [18], 4.84%; in assay [19], “tde”. Moreover, the outcome in assay [1], in assay [2], in assay [3], in [4] and in [5] was Active.
As for `COc1cc([C@@H]2c3cc4c(cc3C[C@H]3COC(=O)[C@@H]32)OCO4)cc(OC)c1OC(=O)[C@H](CC(C)C)NC(=O)Cn1cc(F)c(=O)[nH]c1=O`, the IC50 in [6] worked out at 1070 nM; in assay [13], 63 nM; in assay [14], 430 nM; in assay [16] it was 350 nM.
For `COc1cc([C@@H]2c3cc4c(cc3C[C@H]3COC(=O)[C@@H]32)OCO4)cc(OC)c1OC(=O)[C@H](CCSC)NC(=O)Cn1cc(F)c(=O)[nH]c1=O` the same measures were 830 nM, 230 nM, 780 nM and 360 nM.
The matching figures for `COc1cc([C@@H]2c3cc4c(cc3C[C@H]3COC(=O)[C@@H]32)OCO4)cc(OC)c1OC(=O)[C@H](C)NC(=O)Cn1cc(F)c(=O)[nH]c1=O`: 1400 nM, 190 nM, 200 nM and 600 nM.
For `COc1cc([C@@H]2c3cc4c(cc3C[C@H]3COC(=O)[C@@H]32)OCO4)cc(OC)c1OC(=O)[C@@H](NC(=O)Cn1cc(F)c(=O)[nH]c1=O)C(C)C` the same measures were 360 nM, 140 nM, 1230 nM and 1650 nM.
As to `COc1cc([C@@H]2c3cc4c(cc3[C@@H](O[C@@H]3O[C@@H]5CO[C@@H](C)O[C@H]5[C@H](O)[C@H]3O)[C@H]3COC(=O)[C@H]23)OCO4)cc(OC)c1O` [ETOPOSIDE], the IC50 in assay [14] was 40400 nM; in [16], 2760 nM.
As for `COc1cc([C@@H]2c3cc4c(cc3C[C@H]3COC(=O)[C@@H]32)OCO4)cc(OC)c1OC(=O)[C@@H](CCSC)NC(=O)Cn1cc(F)c(=O)[nH]c1=O`, the IC50 in assay [6] amounted to 2600 nM; in assay [13], 940 nM; in assay [14], 1970 nM; in assay [16] it was 1510 nM.
The matching figures for `COc1cc([C@@H]2c3cc4c(cc3C[C@H]3COC(=O)[C@@H]32)OCO4)cc(OC)c1OC(=O)Cn1cc(F)c(=O)[nH]c1=O`: 660 nM, 35 nM, 180 nM and 110 nM.
Consider `COc1cc([C@@H]2c3cc4c(cc3C[C@H]3COC(=O)[C@@H]32)OCO4)cc(OC)c1O` [4'-DEMETHYLDEOXYPODOPHYLLOTOXIN], for which the figures for the IC50 in assay [14] and in assay [16] were 53300 nM and 43000 nM, respectively.
On to `O=c1[nH]cc(F)c(=O)[nH]1` [FLUOROURACIL], for which the IC50 in [6] is 54800 nM; in [13], 68300 nM; in assay [14] it was 82200 nM; in [16], 218000 nM.
For the compound `COc1cc([C@@H]2c3cc4c(cc3C[C@H]3COC(=O)[C@@H]32)OCO4)cc(OC)c1OC` [DESOXYPODOPHYLLOTOXIN], the IC50 worked out at 6010 nM in [14] and 1980 nM in assay [16].
